Laboratory results as given in ChEMBL document CHEMBL1154406, “Can the Etest correctly determine the MICs of beta-lactam and cephalosporin antibiotics for beta-lactamase-negative ampicillin-resistant Haemophilus influenzae?” (2007).
Values after ≈ are worked out from the molar mass of the structure shown.

Columns and labels:
Assay type in all cases: functional
Haemophilus influenzae [1] = assay: Antimicrobial activity against beta-lactamase negative ampicillin-susceptible Haemophilus influenzae by broth microdilution method
Haemophilus influenzae [2] = assay: Antimicrobial activity against beta-lactamase negative ampicillin-susceptible Haemophilus influenzae by E-test
Haemophilus influenzae [3] = assay: Antimicrobial activity against beta-lactamase negative ampicillin-resistant Haemophilus influenzae by broth microdilution method
Haemophilus influenzae [4] = assay: Antimicrobial activity against beta-lactamase negative ampicillin-resistant Haemophilus influenzae by E-test
Haemophilus influenzae [5] = assay: Antimicrobial activity against beta-lactamase positive ampicillin-resistant Haemophilus influenzae by broth microdilution method
Haemophilus influenzae [6] = assay: Antimicrobial activity against beta-lactamase positive ampicillin-resistant Haemophilus influenzae by E-test
Haemophilus influenzae [7] = assay: Antimicrobial activity against beta-lactamase positive amoxicillin/clavulanate-resistant Haemophilus influenzae by broth microdilution method
Haemophilus influenzae [8] = assay: Antimicrobial activity against beta-lactamase positive amoxicillin/clavulanate-resistant Haemophilus influenzae by E-test
Haemophilus influenzae [9] = assay: Antimicrobial activity against Haemophilus influenzae expressing mutant ftsI gene

SMILES: CC1(C)S[C@@H]2[C@H](NC(=O)[C@H](N)c3ccccc3)C(=O)N2[C@H]1C(=O)O [AMPICILLIN]
- MIC (Haemophilus influenzae [1]): 0.25 µg/mL (≈ 0.715 µM)
- MIC (Haemophilus influenzae [2]): 0.25 µg/mL (≈ 0.715 µM)
- MIC (Haemophilus influenzae [3]): 1 µg/mL (≈ 2.86 µM)
- MIC (Haemophilus influenzae [4]): 1 µg/mL (≈ 2.86 µM)
- MIC (Haemophilus influenzae [5]): 32 µg/mL (≈ 91.6 µM)
- MIC (Haemophilus influenzae [6]): 4 µg/mL (≈ 11.4 µM)
- MIC (Haemophilus influenzae [7]): 256 µg/mL
- MIC (Haemophilus influenzae [8]): 256 µg/mL

SMILES: C[C@@H](O)[C@H]1C(=O)N2C(C(=O)O)=C(S[C@@H]3CN[C@H](C(=O)N(C)C)C3)[C@H](C)[C@H]12 [MEROPENEM]
- MIC (Haemophilus influenzae [1]): < 0.06 µg/mL
- MIC (Haemophilus influenzae [2]): 0.064 µg/mL (≈ 0.167 µM)
- MIC (Haemophilus influenzae [4]): 0.125 µg/mL (≈ 0.326 µM)
- MIC (Haemophilus influenzae [6]): 0.064 µg/mL (≈ 0.167 µM)
- MIC (Haemophilus influenzae [8]): 0.125 µg/mL

SMILES: CO/N=C(\C(=O)N[C@@H]1C(=O)N2C(C(=O)O)=C(COC(N)=O)CS[C@H]12)c1ccco1 [CEFUROXIME]
- MIC (Haemophilus influenzae [9]): 0.5 µg/mL (≈ 1.18 µM)

SMILES: CO/N=C(\C(=O)N[C@@H]1C(=O)N2C(C(=O)O)=C(CSc3nc(=O)c(O)nn3C)CS[C@H]12)c1csc(N)n1 [CEFTRIAXONE]
- MIC (Haemophilus influenzae [1]): < 0.06 µg/mL
- MIC (Haemophilus influenzae [2]): 0.008 µg/mL (≈ 0.0144 µM)
- MIC (Haemophilus influenzae [3]): 0.06 µg/mL (≈ 0.108 µM)
- MIC (Haemophilus influenzae [4]): 0.012 µg/mL (≈ 0.0216 µM)
- MIC (Haemophilus influenzae [6]): 0.008 µg/mL (≈ 0.0144 µM)
- MIC (Haemophilus influenzae [8]): 0.25 µg/mL

SMILES: C[C@H]1COc2c(N3CCN(C)CC3)c(F)cc3c(=O)c(C(=O)O)cn1c23.C[C@H]1COc2c(N3CCN(C)CC3)c(F)cc3c(=O)c(C(=O)O)cn1c23.O [LEVOFLOXACIN]
- MIC (Haemophilus influenzae [1]): < 0.06 µg/mL
- MIC (Haemophilus influenzae [2]): < 0.06 µg/mL
- MIC (Haemophilus influenzae [3]): 1 µg/mL
- MIC (Haemophilus influenzae [4]): < 0.016 µg/mL

SMILES: N[C@@H](C(=O)N[C@@H]1C(=O)N2C(C(=O)O)=C(Cl)CS[C@H]12)c1ccccc1 [CEFACLOR ANHYDROUS]
- MIC (Haemophilus influenzae [9]): 4 µg/mL (≈ 10.9 µM)

SMILES: C=CC1=C(C(=O)O)N2C(=O)[C@@H](NC(=O)/C(=N\OCC(=O)O)c3csc(N)n3)[C@H]2SC1 [CEFIXIME]
- MIC (Haemophilus influenzae [9]): 0.03 µg/mL (≈ 0.0662 µM)
